Consider 5 molecules from patent US4524147A, “Uracil derivatives, process for preparing same, and pharmaceutical compositions comprising same” (Mitsui Toatsu Chemicals, Incorporated, priority 1981, dated 1985).

For one series, the system named is delayed hypersensitivity. As to the kind of experiment: Augmentation test of delayed hypersensitivity (picryl chloride, mouse ear thickness). The series is classed as in vivo, mice (ICR strain, male). The following applies: 50 mg/kg oral, simultaneously with sensitization; 24 hours after challenge; average of 16 measurements of 8 animals; * P<0.05 vs control. The text has this: These facts are more fully explained with reference to the following evaluation tests. A variety of experimental systems are being commonly used to test immunomodulatory activity in animals. Of such tests, the most typical one is an augmentation test of delayed hypersensitivity as shown below. […] L., and Ptak, W. "Contact and delayed hypersensitivity in the mouse I. Active sensitization and passive transfer," Immunology, 15, 405-416(1968)). In the following Evaluation Test 1, this experimental system was used to carry out an augmentation test of delayed hypersensitivity. [Augmentation test of delayed hypersensitivity] Male mice of the ICR strain, weighing approximately 30 g, were used in groups of eight. These animals were sensitized by shaving the hair on the abdomen and applying thereto a 3% solution of picryl chloride in a 4:1 mixture of olive oil and acetone. Simultaneously with this sensitization, each of two compounds of the present invention was dissolved or suspended in physiological saline containing 0.2% carboxymethyl cellulose and administered orally to the animals in a dose of 50 mg per kg of body weight. A control group was treated solely with physiological saline containing 0.2% carboxymethyl cellulose. Seven days after sensitization, delayed hypersensitivity was challenged by wrapping the tips of a forceps with pieces of felt, impregnating the felt with olive oil containing 1% picryl chloride, and pinching both ears of each animal. The thicknesses of the ears were measured before and 24 hours after the challenge, and the calculated percent increase of ear thickness (the average of 16 measurements made of the ears of 8 animals) is shown in Table 1. For purposes of comparison, the results of an experiment with Lavamisole hydrochloride are also given. The test results thus obtained were subjected to statistical analysis using the F.t test. The values marked with an asterisk (*) indicate that, when they were compared with the value of the control group, the differences were significant at P<0.05.

For another series, the system named is adjuvant arthritis. Put plainly: Adjuvant arthritis test (hind paw swelling). The series is classed as in vivo, rats (SD strain, male). The following applies: 5 mg/kg subcutaneous, nine times before and after injection of adjuvant; left hind paw volume; * P<0.05 vs control. As to the method: The adjuvant arthritis induced in rats by injection of a tubercle bacillus adjuvant is frequently used as an experimental model for rheumatoid arthritis in man.
Although the mechanism by which this phenomenon occurs is not completely elucidated, cellular immunity is known to play an important role. Employing this well-known adjuvant arthritis test, the same compounds of the present invention were further examined for immunomodulatory activity.
[Adjuvant arthritis test]
An adjuvant was prepared by suspending 0.4 mg of killed and dried cells of the human type tubercle bacillus (Mycobacterium tuberclosis) in 0.1 ml of liquid paraffin, and inoculated intradermally into the right hind paw of 8-weeks-old male rats of the SD strain. Each of the two compounds of the present invention was subcutaneously administered nine times before and after injection of the adjuvant. These compounds were dissolved or suspended in physiological saline containing 0.2% carboxymethyl cellulose and administered in an amount of 5 mg per kg of body weight. The volume of the left hind paw of each animal was daily measured from the day of inoculation of the adjuvant to the end of the test, and the calculated percent inhibition of swelling is shown in Table 2. For purposes of comparison, the results of an experiment with Levamisole hydrochloride are also given. The test results thus obtained were subjected to statistical analysis using the F.t test. The values marked with an asterisk (*) indicate that, when they were compared with the value of a control group treated solely with physiological saline containing 0.2% carboxymethyl cellulose, the differences were significant at P<0.05.

The nature of series [1]: Test for acute oral toxicity. Further details: species or system mice (ddY strain. The following applies: mouse, in vivo, 5 male ddY mice per group, observed for 7 days, estimated. The procedure:
The toxicity of the active ingredients of some typical pharmaceutical composition of the present invention was examined in the following Evaluation Test 3.
[Test for acute oral toxicity]
Each of the compounds used in Evaluation Tests 1 and 2 was dissolved or suspended in physiological saline and administered orally to a group of 5 male mice of the ddY strain. The LD50 value of the compound was estimated by observing these animals for 7 days after administration.

Molecules are shown by their SMILES. Structures can show the parent of a compound that is named as a salt.

As for `c1ccc([C@H]2CN3CCSC3=N2)cc1` [Levamisole hydrochloride, reference compound], in the series with delayed hypersensitivity, the “Percent increase of ear thickness” value is reported as 31.2%. The “Percent inhibition of swelling as compared with control group (average of 16-20 days)” value with adjuvant arthritis is reported as 19.8%. Besides, the 50% lethal dose (LD50) at 168 h in series [1] is 200 to 300 mg/kg.
`O=C(C(=O)n1ccc(=O)[nH]c1=O)n1ccc(=O)[nH]c1=O` [drawing 4]: the “Percent increase of ear thickness” value in the series on delayed hypersensitivity was determined as 33.9%.
Same read-out and setting: the same measure for `Cc1cn(C(=O)C(=O)n2cc(C)c(=O)[nH]c2=O)c(=O)[nH]c1=O` [drawing 5]: 28.6%.
With `O=C(C(=O)n1ccc(=O)[nH]c1=O)n1ccc(=O)[nH]c1=O` [drawing 6], in the series with adjuvant arthritis, the “Percent inhibition of swelling as compared with control group (average of 16-20 days)” value was determined as 41.4%.
The same measure, in the same setting: the same measure for `Cc1cn(C(=O)C(=O)n2cc(C)c(=O)[nH]c2=O)c(=O)[nH]c1=O` [drawing 7]: 29.9%.

A word on the LD50: it is the dose at which mortality reaches 50%.
